Holding throughout (test): relative viability (nuclei count vs DMSO), 5 days (fraction); higher = more cells survive
Compound in the experiment “Sunitinib + Foretinib”: CCN(CC)CCNC(=O)c1c(C)[nH]c(/C=C2\C(=O)Nc3ccc(F)cc32)c1C [Sunitinib] + COc1cc2c(Oc3ccc(NC(=O)C4(C(=O)Nc5ccc(F)cc5)CC4)cc3F)ccnc2cc1OCCCN1CCOCC1 [Foretinib] (partner 0.25 µM)
In a few lines: (§1)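 Lung cancer cell lines in 1536-well plates got either a single drug or a fixed anchor-drug dose together with five library-drug doses (not always all listed) in √10 steps, by pin tool, on the day after seeding. Nuclei were counted after 5 days, and relative viability is the treated-to-vehicle ratio of nuclei counts. Values are medians of duplicate plates.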

Compound in the experiment “Sunitinib + Pictilisib”: CCN(CC)CCNC(=O)c1c(C)[nH]c(/C=C2\C(=O)Nc3ccc(F)cc32)c1C [Sunitinib] + CS(=O)(=O)N1CCN(Cc2cc3nc(-c4cccc5[nH]ncc45)nc(N4CCOCC4)c3s2)CC1 [Pictilisib] (partner 1 µM)
The method, boiled down: as §1

Compound in the experiment “Sunitinib + AZD7762”: CCN(CC)CCNC(=O)c1c(C)[nH]c(/C=C2\C(=O)Nc3ccc(F)cc32)c1C [Sunitinib] + NC(=O)Nc1cc(-c2cccc(F)c2)sc1C(=O)N[C@H]1CCCNC1 [AZD7762] (partner 0.2 µM)
In a few lines:
as §1

Compound in the experiment “Sunitinib + Vorinostat”: CCN(CC)CCNC(=O)c1c(C)[nH]c(/C=C2\C(=O)Nc3ccc(F)cc32)c1C [Sunitinib] + O=C(CCCCCCC(=O)Nc1ccccc1)NO [Vorinostat] (partner 1 µM)
The method, boiled down: as §1

In the case of NCI-H322M, the relative viability with Sunitinib + Foretinib (first compound 0.02 µM) came out at 0.906; in the experiment with Sunitinib + Foretinib (first compound 0.2 µM), 1.14; with Sunitinib + Foretinib (first compound 0.6325 µM), 1.13; with Sunitinib + Foretinib (first compound 2 µM), 0.869; with Sunitinib + Pictilisib (first compound 0.02 µM) it was 0.497; with Sunitinib + Pictilisib (first compound 0.06325 µM), 0.553. Further, the relative viability with Sunitinib + Pictilisib (first compound 0.2 µM) is 0.582; with Sunitinib + Pictilisib (first compound 0.6325 µM) it was 0.511; with Sunitinib + Pictilisib (first compound 2 µM), 0.474; with Sunitinib + AZD7762 (first compound 0.02 µM), 0.611; with Sunitinib + AZD7762 (first compound 0.06325 µM), 0.559; with Sunitinib + AZD7762 (first compound 0.2 µM), 0.524. In addition, the relative viability in the experiment with Sunitinib + AZD7762 (first compound 0.6325 µM) is 0.651; with Sunitinib + AZD7762 (first compound 2 µM) it was 0.64; with Sunitinib + Vorinostat (first compound 0.02 µM), 0.9; in the experiment with Sunitinib + Vorinostat (first compound 0.06325 µM), 0.807; with Sunitinib + Vorinostat (first compound 0.2 µM), 0.931; in the experiment with Sunitinib + Vorinostat (first compound 0.6325 µM), 0.847. Further, in the experiment with Sunitinib + Vorinostat (first compound 2 µM), the relative viability is 0.702.

As to NCI-H2347, the relative viability with Sunitinib + Foretinib (first compound 0.02 µM) was 0.704; with Sunitinib + Foretinib (first compound 0.06325 µM), 0.708; with Sunitinib + Foretinib (first compound 0.2 µM), 1.03; with Sunitinib + Foretinib (first compound 2 µM) it was 1.36; in the experiment with Sunitinib + Pictilisib (first compound 0.02 µM), 0.554; with Sunitinib + Pictilisib (first compound 0.06325 µM), 0.91. Moreover, the relative viability is 0.691 with Sunitinib + Pictilisib (first compound 0.2 µM); 0.705 in the experiment with Sunitinib + Pictilisib (first compound 0.6325 µM); 0.912 with Sunitinib + Pictilisib (first compound 2 µM); 0.709 with Sunitinib + AZD7762 (first compound 0.02 µM); 0.844 with Sunitinib + AZD7762 (first compound 0.06325 µM); 0.813 with Sunitinib + AZD7762 (first compound 0.2 µM). Besides, the relative viability with Sunitinib + AZD7762 (first compound 0.6325 µM) was 0.838; with Sunitinib + AZD7762 (first compound 2 µM), 0.871; in the experiment with Sunitinib + Vorinostat (first compound 0.02 µM), 0.648; with Sunitinib + Vorinostat (first compound 0.06325 µM), 0.653; in the experiment with Sunitinib + Vorinostat (first compound 0.2 µM), 0.723; with Sunitinib + Vorinostat (first compound 0.6325 µM), 0.554. Besides, the relative viability with Sunitinib + Vorinostat (first compound 2 µM) turned out to be 0.757.

With HOP-62, the relative viability in the experiment with Sunitinib + Foretinib (first compound 0.02 µM) amounted to 0.923; with Sunitinib + Foretinib (first compound 0.06325 µM) it was 1.21; with Sunitinib + Foretinib (first compound 0.2 µM) it was 1.2; with Sunitinib + Foretinib (first compound 0.6325 µM) it was 1.22; with Sunitinib + Foretinib (first compound 2 µM), 1.18; with Sunitinib + Pictilisib (first compound 0.02 µM), 0.66. Further, the relative viability was found to be 1.08 with Sunitinib + Pictilisib (first compound 0.06325 µM); 0.745 in the experiment with Sunitinib + Pictilisib (first compound 0.2 µM); 0.696 in the experiment with Sunitinib + Pictilisib (first compound 0.6325 µM); 0.724 in the experiment with Sunitinib + Pictilisib (first compound 2 µM); 0.579 with Sunitinib + AZD7762 (first compound 0.02 µM); 0.675 in the experiment with Sunitinib + AZD7762 (first compound 0.06325 µM). Further, the relative viability in the experiment with Sunitinib + AZD7762 (first compound 0.2 µM) is 0.874; with Sunitinib + AZD7762 (first compound 0.6325 µM), 0.688; with Sunitinib + AZD7762 (first compound 2 µM) it was 0.85; with Sunitinib + Vorinostat (first compound 0.02 µM) it was 0.675; with Sunitinib + Vorinostat (first compound 0.06325 µM), 0.876; in the experiment with Sunitinib + Vorinostat (first compound 0.2 µM), 0.744. In addition, the relative viability with Sunitinib + Vorinostat (first compound 0.6325 µM) was 0.761; with Sunitinib + Vorinostat (first compound 2 µM), 0.838.

With ChaGo-K-1, the relative viability with Sunitinib + Foretinib (first compound 0.02 µM) came out at 0.852; in the experiment with Sunitinib + Foretinib (first compound 0.06325 µM) it was 0.906; with Sunitinib + Foretinib (first compound 0.2 µM), 1; with Sunitinib + Foretinib (first compound 0.6325 µM) it was 0.914; in the experiment with Sunitinib + Foretinib (first compound 2 µM), 0.869; in the experiment with Sunitinib + Pictilisib (first compound 0.02 µM) it was 0.766. The relative viability turned out to be 0.786 with Sunitinib + Pictilisib (first compound 0.06325 µM); 0.774 in the experiment with Sunitinib + Pictilisib (first compound 0.2 µM); 0.624 with Sunitinib + Pictilisib (first compound 0.6325 µM); 0.756 with Sunitinib + Pictilisib (first compound 2 µM); 0.892 in the experiment with Sunitinib + AZD7762 (first compound 0.02 µM); 0.885 in the experiment with Sunitinib + AZD7762 (first compound 0.06325 µM). Besides, the relative viability with Sunitinib + AZD7762 (first compound 0.2 µM) was found to be 0.984; in the experiment with Sunitinib + AZD7762 (first compound 0.6325 µM), 0.915; in the experiment with Sunitinib + AZD7762 (first compound 2 µM) it was 0.88; with Sunitinib + Vorinostat (first compound 0.02 µM) it was 0.736; in the experiment with Sunitinib + Vorinostat (first compound 0.06325 µM), 0.831; with Sunitinib + Vorinostat (first compound 0.2 µM) it was 0.887. In addition, the relative viability stood at 0.773 in the experiment with Sunitinib + Vorinostat (first compound 0.6325 µM) and 0.746 with Sunitinib + Vorinostat (first compound 2 µM).

HCC-78: the relative viability in the experiment with Sunitinib + Foretinib (first compound 0.02 µM) came out at 0.527; with Sunitinib + Foretinib (first compound 0.06325 µM), 0.588; with Sunitinib + Foretinib (first compound 0.2 µM), 0.525; with Sunitinib + Foretinib (first compound 0.6325 µM) it was 0.545; in the experiment with Sunitinib + Foretinib (first compound 2 µM) it was 0.613; in the experiment with Sunitinib + Pictilisib (first compound 0.02 µM) it was 0.206. In addition, the relative viability worked out at 0.227 in the experiment with Sunitinib + Pictilisib (first compound 0.2 µM); 0.246 in the experiment with Sunitinib + Pictilisib (first compound 2 µM); 0.554 with Sunitinib + AZD7762 (first compound 0.02 µM); 0.609 in the experiment with Sunitinib + AZD7762 (first compound 0.06325 µM); 0.727 with Sunitinib + AZD7762 (first compound 0.2 µM); 0.485 with Sunitinib + AZD7762 (first compound 0.6325 µM). The relative viability with Sunitinib + AZD7762 (first compound 2 µM) is 0.713; in the experiment with Sunitinib + Vorinostat (first compound 0.02 µM), 0.427; with Sunitinib + Vorinostat (first compound 0.06325 µM) it was 0.418; in the experiment with Sunitinib + Vorinostat (first compound 0.2 µM) it was 0.531; in the experiment with Sunitinib + Vorinostat (first compound 0.6325 µM) it was 0.481; in the experiment with Sunitinib + Vorinostat (first compound 2 µM) it was 0.465.

For the origin of these results see the supplement of paper PMC10307832.
